Laboratory results reported in patent US12297457B2, “Esophageal tissue and/or organoid compositions and methods of making same” (Children's Hospital Medical Center, priority 2017, dated 2025).
“Also recorded” adds a separate entry of the source.

How the values were obtained:
Format in all cases: cell-based, human
CDX2-induced HEOs = assay: Notch inhibition in CDX2-induced HEOs (qPCR, IF); conditions: d58 HEOs
Description: Human embryonic stem cell (hESC) line H1 (WA01, person) were purchased from WiCell. iPSC line iPS106 was generated in-house and approved by the institutional review board at CCHMC. All hPSCs were maintained on feeder-free cultures: cells were plated on hESC-qualified Matrigel (BD Biosciences, San Jose, Calif.) and maintained at 37° C. with 5% CO2 with daily replacement of mTeSR1 media (STEMCELL Technologies, Vancouver, Canada); cells were passaged routinely every 4 days using Dispase (STEMCELL Technologies). The HA-tagged SOX2, CDX2, or FANCA dox-inducible lines were generated by first cloning the human SOX2 ORF, CDX2 ORF, or FANCA ORF into pINDUCER20 (respectively) (Addgene #44012, Meerbrey et al., 2011). Next, lentivirus was generated with help of the Viral Vector Core Facility at CCHMC. The lentivirus for HA-SOX2 and CDX2 were transduced into hESCs with 2 μL of virus; these lines were maintained on selection with mTeSR1 and G418 (500 μg mL-1, ThermoFisher Scientific). The lentivirus for FANCA were transduced prior to the iPS106 line generation, as FANCA is required for maintenance of hPSC properties. The hESC H1 line (and transduced derivatives) was used in all experiments excluding Fanconi Anemia modeling in HEOs, which used the iPS106 line.
(§1) For the generation of anterior foregut spheroids, from definitive endoderm, cells were treated with Wnt3a (500 ng mL-1, R&D systems) for 2 days, and FGF4 (500 ng mL-1, R&D systems), Noggin (200 ng mL-1) for 3 days in RPMI 1640 with 2% dFBS. Three-dimensional culture and differentiation of anterior foregut spheroids into human esophageal organoids were obtained as described above.
Tissue cultures were fixed with 4% paraformaldehyde at either room temperature for 15 minutes (for monolayer cultures), or 4° C. for overnight (for organoids). […]
Monolayer cultures and organoids were harvested in total, including the plated/embedding matrigel. […] For qRT-PCR, Applicant used Quantitect SYBR-Green master mix (Qiagen) and ran the reaction on a QuantStudio 6 machine (ThermoFisher Scientific).

foregut spheroids = assay: Anterior-posterior patterning of foregut spheroids (qPCR, IF); conditions: for regional identity of foregut spheroids (HNF1β, SOX2, PROX1, HNF6): shorter duration of treatment following DE formation, day 6 spheroids
Description: Confluent hPSC cultures were treated with Acutase (STEMCELL Technologies) to resuspend as single cells in mTeSR1 and Y-27632 (10 μM, Tocris) and plated on Matrigel. On the following day, differentiation into definitive endoderm was carried out as previously described (McCracken et al., 2014). Briefly, cells were treated with Activin A (100 ng mL-1, R&D systems, Minneapolis, Minn.) and BMP4 (50 ng mL-1, R&D systems) on the first day in RPMI 1640 media (Life Technologies). Cells in the following two days were treated with only Activin A (100 ng mL-1) in RPMI 1640 with increasing concentrations 0.2% and 2% of HyClone defined fetal bovine serum (dFBS, GE Healthcare Life Sciences).
For anterior foregut monolayer cultures, cells were treated for 3 days in Noggin (200 ng mL-1) in RPMI 1640 with 2% dFBS, with all-trans retinoic acid (2 μM, Sigma, St. Louis, Mo.) the 3rd day.
(§2) Alternately, for the generation of anterior foregut spheroids, from definitive endoderm, cells were treated with FGF4 (500 ng mL-1, R&D systems), Noggin (200 ng mL-1) for 3 days in RPMI 1640 with 2% dFBS. Additional factors were tested during this time (described in results), such as CHIR99021 (“chiron” or “chr”, 2 μM, Tocris), Wnt3a (500 ng mL-1, R&D systems), SB431542 (10 μM, Tocris), DEAB (10 μM, Sigma), and retinoic acid (2 μM).
Tissue cultures were fixed with 4% paraformaldehyde at either room temperature for 15 minutes, 4° C. for 2 hours for cryosectioning, or 4° C. overnight for paraffin embedding/sectioning and mouse embryos. For paraffin embedding and sectioning, following fixation, tissues were dehydrated and embedded into paraffin blocks. Afterwards, paraffin-sectioned slides were deparaffinized and subjected to antigen retrieval in 10 mM sodium citrate for 30 minutes prior to staining. For cryosectioning, tissues were thoroughly washed in PBS, left in 30% sucrose overnight, embedded in OCT compound (VWR), and sectioned at a thickness of 8 μm. Commonly, slides were then permeabilized with 0.5% TritonX-100 in PBS for 10 minutes, blocked in 5% normal donkey serum (Jackson ImmunoResearch) for 1 hour, and incubated in primary antibody overnight at 4° C. On the next day, slides were thoroughly washed in PBS, incubated in secondary antibody (at 1:500) for 1 hour, and then thoroughly washed again. For EdU visualization, Applicant used the Click-iT EdU Alexa Fluor 488 Imaging Kit (Invitrogen) prior to blocking. For wholemount immunofluorescence staining, embryos were placed in 100% methanol immediately after fixation. Embryos were then permeabilized with Dent's Bleach (4:1:1 MeOH:DMSO:30% H2O2) for 2 hours at room temperature, rehydrated with methanol washes, and blocked for several hours at room temperature to overnight at 4° C. Primary antibodies were applied and embryos incubated overnight at 4° C. Then, embryos were thoroughly washed in 0.1% TritonX-100 in PBS before incubating in secondary antibodies overnight at 4° C. Finally, embryos were washed again, dehydrated with methanol washes, and cleared with Murray's Clear (2:1 benzyl benzoate:benzyl alcohol, Sigma) at least 15 minutes prior to imaging. For a list of antibodies and dilutions used, please see Table 2.
Spheroid and organoids were harvested in total, including the embedding matrigel. Collagen plugs from the organotypic raft cultures were first removed from the transwell on day 14, and subsequently harvested in total. Total RNA was isolated using the NucleoSpin RNA kit (Macherey-Nagel) and reverse transcribed to cDNA using the SuperScript VILO cDNA synthesis kit (ThermoFisher Scientific). For qRT-PCR, Applicant used Quantitect SYBR-Green master mix (Qiagen) and ran the reaction on a QuantStudio 6 machine (ThermoFisher Scientific). For a list of primers used, please see Table 1.

HEOs [1] = assay: IL-13 treatment of HEOs, eosinophilic esophagitis model (qPCR, Western blot, IF, EdU, H&E, electron microscopy)
Description: (§3) Anterior foregut spheroids were transferred into 50 μL droplets of Matrigel, and are cultured for 3-58 days in the base (“Gut”) media of Advanced DMEM/F12 (ThermoFisher Scientific) supplemented with B27 supplement (1×, ThermoFisher Scientific), N2 supplement (1×, ThermoFisher Scientific), HEPES (13 mM, ThermoFisher Scientific), L-Glutamine (2 mM ThermoFisher Scientific), penicillin/streptomycin (1×, ThermoFisher Scientific), and EGF (100 ng mL^−1, R&D systems). In addition to this base media, the first three days were supplemented with Noggin (200 ng mL^−1), FGF10 (50 ng mL^−1), and CultureOne supplement (1×, ThermoFisher Scientific). FGF10 and CultureOne supplementation is continued until the end of the first week in three-dimensional culture. Media was replaced every 3-4 days. For EdU labeling, media was supplemented with EdU (10 μM Invitrogen) for a defined period of time, and was removed by washing with sterile PBS twice before replacing with media without EdU.
as §1
(§4) Tissue cultures were fixed with 4% paraformaldehyde at either room temperature for 15 minutes (for monolayer cultures), or 4° C. for overnight (for organoids). Tissues were thoroughly washed in PBS and stained for monolayer cultures, while organoids were thoroughly washed and then left in 30% sucrose overnight, embedded in OCT compound (VWR), and sectioned at a thickness of 8 μm. Slides were then permeabilized with 0.5% TritonX-100 in PBS for 10 minutes, blocked in 5% normal donkey serum (Jackson ImmunoResearch) for 1 hour minimum, and incubated in primary antibody overnight at 4° C. On the next day, slides were thoroughly washed in PBS, incubated in secondary antibody (at 1:500) for 1 hour, and then thoroughly washed again. For EdU visualization, the Click-iT EdU Alexa Fluor 488 Imaging Kit (Invitrogen) was used prior to blocking.
(§5) Monolayer cultures and organoids were harvested in total, including the plated/embedding matrigel. Total RNA was isolated using the NucleoSpin RNA kit (Macherey-Nagel) and reverse transcribed to cDNA using the SuperScript VILO cDNA synthesis kit (ThermoFisher Scientific). For qRT-PCR, Applicant used Quantitect SYBR-Green master mix (Qiagen) and ran the reaction on a QuantStudio 6 machine (ThermoFisher Scientific).

HEOs [2] = assay: BMP activation in late stage HEOs (IF, EdU, qPCR)
Description: as §3, §1, §4, §5

AFG spheroids = assay: Dorsal-ventral patterning / respiratory induction of anterior foregut spheroids (qPCR, IF); conditions: day 6 AFG spheroids treated 3 days; analysed day 9
Description: as §2
Anterior foregut spheroids were transferred into 50 μL droplets of Matrigel, and are cultured for 3-58 days in the base (“Gut”) media of Advanced DMEM/F12 (ThermoFisher Scientific) supplemented with B27 supplement (1×, ThermoFisher Scientific), N2 supplement (1×, ThermoFisher Scientific), HEPES (13 mM, ThermoFisher Scientific), L-Glutamine (2 mM ThermoFisher Scientific), penicillin/streptomycin (1×, ThermoFisher Scientific), and EGF (100 ng mL^−1, R&D systems). In addition to this base media, the first three days were supplemented with Noggin (200 ng mL^−1), FGF10 (50 ng mL^−1), and CultureOne supplement (1×, ThermoFisher Scientific). […]
Spheroid and organoids were harvested in total, including the embedding matrigel. […] For qRT-PCR, Applicant used Quantitect SYBR-Green master mix (Qiagen) and ran the reaction on a QuantStudio 6 machine (ThermoFisher Scientific). […]

[3] = 6-week-old HEOs, BMP4 100 ng/mL for additional 2 weeks

## C[C@H](NC(=O)Cc1cc(F)cc(F)c1)C(=O)N[C@H](C(=O)OC(C)(C)C)c1ccccc1 [DAPT]
CDX2-induced HEOs; CDX2-induction plus DAPT
  KRT5 expression: further downregulated
  KRT13 expression, effect added to CDX2-induction: does not appear to be a synergistic effect
CDX2-induced HEOs; qPCR
  HESS (Notch target gene) expression: downregulated

## CCN(CC)c1ccc(C=O)cc1 [DEAB]
Foregut spheroids; cultures containing DEAB (blocking RA synthesis)
  TP63 and pharyngeal marker expression of spheroids: spheroids with minimal TP63 expression and increased levels of the pharyngeal markers PAX9 and OTX2

## CC1=C(/C=C/C(C)=C/C=C/C(C)=C/C(=O)O)C(C)(C)CCC1 [RA, all-trans retinoic acid]
Foregut spheroids; 1 day of RA
  marker expression after RA treatment: promotes expression of TP63 and KRT4 and not posterior foregut markers GATA4 and PDX1; also recorded: spheroids that express TP63
Foregut spheroids; RA for 4 days
  marker expression after RA treatment: express posterior foregut markers, GATA4 and PDX1

## Cc1c[nH]c(-c2cnc(NCCNc3ccc(C#N)cn3)nc2-c2ccc(Cl)cc2Cl)n1 [chiron, CHIR99021]
Foregut spheroids; one day of chiron treatment, qPCR
  gene expression profile of spheroids, chiron versus Wnt3a: same gene expression profile as those generated with 2 days of Wnt3a
Foregut spheroids
  regional identity of foregut spheroids (HNF1β, SOX2, PROX1, HNF6): formation of anterior foregut (AFG) spheroids expressing HNF1β and SOX2, with low levels of posterior foregut markers PROX1 and HNF6

## IL-13: a cytokine known to enact broad changes in the esophagus
HEOs [1]; IL-13 100 ng/mL for 2 weeks
  epithelial morphology by electron microscopy: increased spaces between individual cells and a decrease in cell-cell contacts
HEOs [1]; IL-13 100 ng/mL for 2 weeks, EdU 2 days
  EdU incorporation in the basal-most p63+ cells: increased
HEOs [1]; IL-13 100 ng/mL for 2 weeks, qPCR
  BMP antagonists NOG and FST expression: did not upregulate
HEOs [1]; IL-13 100 ng/mL for 2 weeks, IF, H&E
  epithelial morphology: dilated intercellular spaces suprabasally
HEOs [1]; IL-13 100 ng/mL, 1-2 weeks
  late differentiation and structural proteins: downregulated late differentiation and structural proteins DSG1, IVL, and CRNN
HEOs [1]; IL-13 alone
  PTCH1 expression (read-out for hedgehog signaling): upregulates
HEOs [1]; day 62 HEOs, qPCR
  BMP target gene ID3 expression: mild increase
HEOs [1]; extended treatment (100 ng/mL, 1 week), Western blot
  IL-13 target gene response: maintained upregulation of some target genes SERPINB13 and CDH26
HEOs [1]; short duration (2 days prior to harvest), day 62 HEOs, qPCR
  IL-13 target gene response: validated the response of target genes CCL26, CDH26, CAPN14, and SERPINB4

B1: BMP4: recombinant human BMP4 (protein, UniProt P12644 293-408, looked up)
Bone morphogenetic protein 4: SPKHHSQRARKKNKNCRRHSLYVDFSDVGWNDWIVAPPGYQAFYCHGDCPFPLADHLNSTNHAIVQTLVNSVNSSIPKACCVPTELSAISMLYLDEYDKVVLKNYQEMVVEGCGCR
HEOs [2]; [3]
  state of remaining basal cells (pSMAD1/5/9, p63, SOX2): have active BMP signaling (pSMAD1/5/9+) and express p63, but loss expression of SOX2
  stratification and differentiation markers: loss of stratification and expression of differentiation markers
HEOs [2]; BMP4 treated HEOs, day 62
  EdU incorporation: minimal EdU incorporation
HEOs [2]; BMP4 treated HEOs, data not shown
  CDX2 expression: unchanged

B2: Wnt3a: recombinant human Wnt3a, Wnt ligand (protein, UniProt P56704 19-352, looked up)
Protein Wnt-3a: SYPIWWSLAVGPQYSSLGSQPILCASIPGLVPKQLRFCRNYVEIMPSVAEGIKIGIQECQHQFRGRRWNCTTVHDSLAIFGPVLDKATRESAFVHAIASAGVAFAVTRSCAEGTAAICGCSSRHQGSPGKGWKWGGCSEDIEFGGMVSREFADARENRPDARSAMNRHNNEAGRQAIASHMHLKCKCHGLSGSCEVKTCWWSQPDFRAIGDFLKDKYDSASEMVVEKHRESRGWVETLRPRYTYFKVPTERDLVYYEASPNFCEPNPETGSFGTRDRTCNVSSHGIDGCDLLCCGRGHNARAERRREKCRCVFHWCCYVSCQECTRVYDVHTCK
Foregut spheroids
  regional identity of foregut spheroids (HNF1β, SOX2, PROX1, HNF6): formation of anterior foregut (AFG) spheroids expressing HNF1β and SOX2, with low levels of posterior foregut markers PROX1 and HNF6

B3: Noggin: recombinant human Noggin, used to inhibit BMP signaling (protein, UniProt Q13253 28-232, looked up)
Noggin: QHYLHIRPAPSDNLPLVDLIEHPDPIFDPKEKDLNETLLRSLLGGHYDPGFMATSPPEDRPGGGGGAAGGAEDLAELDQLLRQRPSGAMPSEIKGLEFSEGLAQGKKQRLSKKLRRKLQMWLWSQTFCPVLYAWNDLGSRFWPRYVKVGSCFSKRSCSVPEGMVCKPSKSVHLTVLRWRCQRRGGQRCGWIPIQYPIISECKCSC
AFG spheroids
  dorsal-ventral marker expression (NKX2-1, SOX2, MNX1, KRT4, TP63): dorsalized spheroids, as marked by elevated levels of SOX2, MNX1, KRT4, and TP63
